The source of these data is article PMC10186366 (ACS Pharmacology & Translational Science, 2023).

Test [1] deals with KB human tumor cells (RFC/FRα/PCFT). As to conditions: 96 h, no folic acid; mean (standard error); previously published; cited from earlier work.
Another test has as its system KB tumor cells. Nature of the test: Metabolite rescue of growth inhibition in KB cells. As to conditions: glycine- and nucleoside-free media; for Protection from growth inhibition by adenosine: inhibitor up to 1000 nM, 60 μM adenosine alone. The class given is cell-based, human. As to the method:
Upper panel: schematic of C1 metabolism. Undefined abbreviations include the following: DHF, dihydrofolate; THF, tetrahydrofolate; FAICAR, formyl 5-aminoimidazole-4-carboxamide ribonucleotide; fGAR, formyl GAR; and 5,10-meTHF, 5,10-methylene tetrahydrofolate. Lower panels: KB cells were plated (4000 cells/well) in glycine-, nucleoside-, and folate-free RPMI 1640 medium with 10% dialyzed fetal bovine serum, antibiotics, L-glutamine, and 2 nM leucovorin over a range of inhibitor concentrations in the presence of adenosine (60 μM), glycine (160 μM), thymidine (10 μM), or AICA (320 μM). As shown, combined glycine plus adenosine or AICA was also tested to identify potential mitochondrial C1 targeting.[45] Cell proliferation was assayed with a fluorescence-based assay.[26] Data are representative of at least triplicate experiments (presented as mean values plus/minus standard errors). Methods are described in the Experimental Section, and additional metabolite rescue data for 4, 5, and 8–11 are presented in Figure S3 (Supporting Information).
Metabolite “rescue” experiments have been used to identify targeted pathways for novel antifolate inhibitors including de novo purine nucleotide and thymidylate biosynthesis (protection by adenosine and thymidine, respectively)[25]−[27],[29],[30],[32],[43],[45]−[47] and mitochondrial C1 metabolism (protection by glycine and adenosine).[45] To gain insights into the targeted pathways that contribute to the loss of KB tumor cell proliferation upon treatment with compounds 3–9, we tested the reversal of growth inhibition by the active compounds in Table 1 (up to 1000 nM) in glycine- and nucleoside-free media in the presence of 60 μM adenosine, 160 μM glycine, or 10 μM thymidine alone or with combined adenosine and glycine. The use of glycine- and nucleoside-free media for these experiments expands the ability to identify causal intracellular targets (including previously unrecognized mitochondrial targets[45]) that can be confirmed by targeted metabolomics and direct in vitro assays (below). […] The results of these experiments are shown in Figure 7 (lower panel) and in Figure S3 (Supporting Information).
AICA circumvents the first folate-dependent enzyme, GARFTase, and is directly metabolized to ZMP (AICAR), thus providing a substrate for AICARFTase[26],[32],[46] (Figure 7, upper panel). This distinguishes primary inhibition at GARFTase (protection by AICA) versus AICARFTase (incomplete protection by AICA) for inhibitors of de novo purine biosynthesis.[25]
Additional proliferation assays with metabolite rescue used KB cells to identify the targeted pathway and enzyme(s) in folate- and glycine-free RPMI1640, DFBS, 2 mM glutamine, and antibiotics. […] These assays have been previously described.[25],[26],[45]

The test system of test [2] is RT16 CHO cells (expresses only human FRα). As to conditions: 96 h; mean (standard error); previously published; cited from earlier work.
The subject of test [3] is PC43-10 CHO cells (expresses only human RFC). As to conditions: 96 h; mean (standard error); previously published; cited from earlier work.
For test [4], the system named is D4 CHO cells (expresses only human FRβ). As to conditions: 96 h; mean (standard error); previously published; cited from earlier work.
The target in the next test is T1, SHMT2 (Homo sapiens, UniProt P34897).
T1 construct: N-terminal His6-tagged SHMT2 (residues 30–504); made in house; host or cells: E. coli Rosetta (DE3)pLysS
T1 sequence (P34897 30-504): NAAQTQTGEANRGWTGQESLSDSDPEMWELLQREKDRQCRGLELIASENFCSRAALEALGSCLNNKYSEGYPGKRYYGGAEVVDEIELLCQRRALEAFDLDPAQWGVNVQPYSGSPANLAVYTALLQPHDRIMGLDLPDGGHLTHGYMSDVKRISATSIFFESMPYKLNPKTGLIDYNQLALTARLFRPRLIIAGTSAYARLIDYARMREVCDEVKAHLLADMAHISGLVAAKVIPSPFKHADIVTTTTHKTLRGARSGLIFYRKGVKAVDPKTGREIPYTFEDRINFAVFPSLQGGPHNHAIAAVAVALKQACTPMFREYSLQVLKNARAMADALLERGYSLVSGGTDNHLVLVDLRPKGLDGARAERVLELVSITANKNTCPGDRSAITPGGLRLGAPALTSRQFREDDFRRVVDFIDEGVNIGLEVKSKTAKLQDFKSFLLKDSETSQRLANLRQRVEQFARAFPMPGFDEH
Nature of the test: SHMT2 coupled enzyme assay with MTHFD2 (NADH production). The class given is biochemical. As to conditions: mean (standard error), at least three replicate assays.

The test system of test [5] is SHMT2 (mitochondrial C1 metabolism) in KB tumor cells. Nature of the test: Targeted metabolomics flux analysis with [2,3,3-2H]serine in KB cells. As to conditions: 0.1 μM compound, 250 μM [2,3,3-2H]serine, versus vehicle-treated cells. The class given is cell-based, human. An excerpt: Serine is catabolized in the mitochondria via SHMT2, which converts serine to glycine and 5,10-methylene THF, the latter of which is metabolized by MTHFD2 to 10-CHOTHF and by MTHFD1L to formate (Figure 7).
The cells were processed for liquid chromatography–mass spectrometry (LC–MS) analysis of total serine and glycine, and deuterated serine (M + 3, M + 2, M + 1, and M + 0 serine, where M + n represents species with n deuterium atoms) and glycine (M + 1 and M + 0) isotopomers. The results are shown in Figure 8 and are compared to those for control (vehicle-treated) cells (labeled “N/A”).
Figure 8 Metabolomics flux analysis with [2,3,3-^2H]serine to assay mitochondrial C1 metabolism via SHMT2. (A) A schematic of [2,3,3-^2H]serine metabolism is shown. Heavy (^2H) atoms in serine (colored circles) are metabolized via SHMT2 initially followed by MTHFD2 and MTHFD1L to formate. (B, C) Total serine and glycine and the distribution of the serine (M + n, n = 0−3) and glycine (n = 0 or 1) isotopomers are shown. The loss of M + 3 serine corresponding to the metabolism of [2,3,3-^2H]serine to M + 1 glycine is a direct measure of SHMT2 activity in the cells.[45] Experimental methods are described in the Experimental Section. Results are shown as mean values plus/minus standard deviations (n = 3). *P < 0.05; **P < 0.01. […]
KB cells (1 × 10[6]) were seeded in each of three 60 mm dishes in folate-, serine-, and glycine-free RPMI1640 supplemented with 10% DFBS, 1% penicillin/streptomycin, 2 mM L-glutamine, 285 μM serine, 130 μM glycine, and 2 nM leucovorin. […] The targeted metabolites were quantitatively determined using the AB Sciex QTRAP 6500 LC–MS/MS system. […] Isotopomers were detected using multiple reaction monitoring (MRM) at the positive ionization mode. […] Absolute metabolite concentrations were calculated from calibration curves and then normalized to total protein concentrations measured from the postextraction pellet (solubilized in 0.5 N NaOH) using the Folin-phenol method.[53] […] To correct for multiple comparisons, adjusted p values were determined using Holm’s method.

The next test addresses T2, human GARFTase (Homo sapiens, UniProt P22102).
T2 construct: GARFTase (formyltransferase domain; residues 808–1010); made in house; host or cells: E. coli Rosetta (DE3)pLysS
T2 sequence (P22102 808-1010): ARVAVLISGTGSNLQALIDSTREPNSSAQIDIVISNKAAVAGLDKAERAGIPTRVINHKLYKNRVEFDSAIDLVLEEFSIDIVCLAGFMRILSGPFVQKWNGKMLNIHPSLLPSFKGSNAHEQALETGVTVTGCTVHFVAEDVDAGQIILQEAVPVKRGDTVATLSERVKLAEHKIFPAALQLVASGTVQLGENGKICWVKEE
Details: method as in PMID 33773393, PMID 31289137, PMID 27439469. As to conditions: mean (standard error); previously reported; cited from earlier work.

Values joined by “and” are separate entries in the source; they are usually repeats but may differ in a detail not shown here. Equal entries are not always repeated.

The term IC50 denotes the concentration that inhibits the measured activity by half. As a reminder, the Ki is a measure of affinity in units of concentration, obtained from inhibition or displacement.

As for `Nc1nc2sc(CCCc3csc(C(=O)N[C@@H](CCC(=O)O)C(=O)O)c3)cc2c(=O)[nH]1` [Compound 10], the IC50 in test [1] is 1.48 nM; in test [2], 0.4 nM and 0.44 nM; in test [3] it was > 1000 nM; in test [4] it was 0.24 nM. In the test with KB tumor cells, the “Protection from growth inhibition by adenosine” value is recorded as “completely protective”.

With `Nc1nc2sc(CCCCc3ccc(C(=O)N[C@@H](CCC(=O)O)C(=O)O)cc3)cc2c(=O)[nH]1` [Compound 2], the affinity at SHMT2, expressed as Ki, was 12400 nM. For the same compound, in the test with KB tumor cells (160 μM glycine combined with 60 μM adenosine), the “Protection from growth inhibition by glycine plus adenosine over adenosine alone” value is “substantially enhanced and was complete”. Besides, the half-inhibitory concentration (IC50) is 9 nM in test [2], > 1000 nM in test [3] and 20 nM in test [4]. Further, the “Increase in M + 3 serine” value in test [5] was 2–4 fold.

Regarding `Nc1nc2[nH]cc(CCc3ccc(C(=O)N[C@@H](CCC(=O)O)C(=O)O)cc3)c2c(=O)[nH]1` [PMX, reference compound], the IC50 in test [2] is 42 nM; in test [4], 60 nM.

In the case of `Nc1nc2sc(CCCCc3csc(C(=O)N[C@@H](CCC(=O)O)C(=O)O)c3)cc2c(=O)[nH]1` [Compound 11], at human GARFTase, the Ki is > 150000 nM. Further, the 50% inhibitory concentration (IC50) in test [1] is 6.85 nM; in test [2] it was 5.62 nM; in test [3] it was > 1000 nM; in test [4], 5.63 nM. In addition, the “Protection from growth inhibition by adenosine” value in the test on KB tumor cells is “completely protective”.
